This is an account of results in patent publication US20200155575A1, “PHARMACEUTICAL COMPOSITION AND METHODS” (priority 2014, published 2020).

The series can be described thus: Solubility in pharmaceutically acceptable carriers/excipients. Format: physicochemical. The method, then: The solubility of (8R,9S,10R,13S,14S,17S)-10,13-dimethyl-3-oxo-1,2,6,7,8,9,11,12,14,15,16,17-dodecahydrocyclopenta[a]phenanthren-17-yl tridecanoate was determined in the solvents (typical pharmaceutical carriers) listed below.

For `CCCCCCCCCCCCC(=O)O[C@H]1CC[C@H]2[C@@H]3CCC4=CC(=O)CC[C@]4(C)[C@H]3CC[C@]12C` [testosterone tridecanoate, (8R,9S,10R,13S,14S,17S)-10,13-dimethyl-3-oxo-1,2,6,7,8,9,11,12,14,15,16,17-dodecahydrocyclopenta[a]phenanthren-17-yl tridecanoate], the “Solubility mg/g at ~20-23° C.” value reads like this: (solvent Benzyl Alcohol) 322 mg/g; (solvent Benzyl Benzoate) 223 mg/g; (solvent Castor Oil) 55 mg/g; (solvent Corn glycerides -Maisine) 77 mg/g; (solvent Corn oil) 35 mg/g; (solvent Cremophor RH40) 10 mg/g. Further, the “Solubility mg/g at ~20-23° C.” value is, setting by setting: (solvent Ethanol) 27 mg/g; (solvent Fatty Acid -Oleic acid) 114 mg/g; (solvent Medium chain glycerides-Capmul) 68 mg/g; (solvent Olive Oil) 38 mg/g; (solvent Peppermint Oil) roughly 200 mg/g.
